# Experimental data from US10314811B2, “Compositions and methods for selectively inhibiting intestinal carboxylesterase 2 enzyme activity” (The Methodist Hospital, priority 2015, dated 2019).
# Read-outs that look alike come from different tables or passages of the source.
# Legend:
# [1] = tested on: CT 26 tumor bearing Balb/cJ mice; experiment: In vivo testing of anti-diarrheal activity with CPT-11 in tumor bearing mice (Example 3); conditions: for anti-tumor efficacy, as evaluated by tumor growth, versus CPT-11 only group / losses in body weight induced by CPT-11 treatment / survival rates as compared to CPT-11 alone: 40 mg/kg orally with CPT-11 50 mg/kg i.p.; for anti-tumor efficacy, as evaluated by tumor growth, versus CPT-11 only group: FIG. 1A; for losses in body weight induced by CPT-11 treatment: FIG. 1B at 14-16 days of treatment; for survival rates as compared to CPT-11 alone: FIG. 1C; for day on which diarrhea occurred: CPT-11 50 mg/kg i.p., CES2 inhibitor (if any) 40 mg/kg orally; for Percentage of mice having diarrhea: CPT-11 50 mg/kg i.p. day 1-10, CES2 inhibitor (if any) 40 mg/kg orally day 0-11
# Experimental: CPT-11 was purchased from Selleck Chemicals. To obtain an injectable formulation, CPT-11 (20 mg/mL) was dissolved in a solution containing D sorbitol (45 mg/mL) and D lactic acid (0.9 mg/mL) in ddH2O, and heated to ˜70° C. to 90° C. for 5 to 10 min See Trifan et al. 2002, Cancer Res., 62(20):5778 5784. The pH of the solution was adjusted to 3.5 prior to sterile filtration. The solution was stored protected from light until just prior to administration.
# Each of these compounds was dissolved separately in 100% DMSO and then diluted into a 0.5% carboxymethylcellulose solution. The final concentration of DMSO was less than 1%.
# (§1) Healthy 6-8 week old female Balb/cJ mice were obtained from Jackson Laboratories (Bar Harbor, Me. USA). CT 26 tumor cells, derived from a murine Balb/c colon adenocarcinoma, were used to form tumors by subcutaneous injection of tumor cells into the posterior mid-dorsum of the mice. When tumors reached ˜500 mm^3 (˜10 days after implantation, defined as day 1), treatment was initiated. The mice were divided into five groups of 3-4 animals each and treated as follows:
# (1) Vehicle group, mice received an equivalent volume of CPT-11 vehicle i.p. from day 1 to day 10, and an equivalent volume of compound vehicle orally from day 0 to day 11;
# (2) CPT-11 only group, mice received CPT-11 (50 mg/kg) i.p. from day 1 to day 10, and an equivalent volume of compound vehicle orally from day 0 to day 11;
# CPT-11 and the CES2 inhibitors were each administrated once per day during the experiment.
# The CES2 inhibitor treatment groups were compared to the CPT-11 only group and to the vehicle control group. Four major parameters were examined to quantify the effect of CES2 inhibitors, namely, body weight change, presence of diarrhea, survival time, and average tumor size.
# human liver CES1 = molecular target: T1, human liver CES1 (Homo sapiens, UniProt P23141); experiment: CES1 enzyme assay (4-nitrophenyl acetate hydrolysis); type: biochemical; conditions: for inhibition of CES1: concentrations as high as 300 μM
# T1 construct: purchased Sigma Aldrich E0162
# T1 sequence (P23141 18-567): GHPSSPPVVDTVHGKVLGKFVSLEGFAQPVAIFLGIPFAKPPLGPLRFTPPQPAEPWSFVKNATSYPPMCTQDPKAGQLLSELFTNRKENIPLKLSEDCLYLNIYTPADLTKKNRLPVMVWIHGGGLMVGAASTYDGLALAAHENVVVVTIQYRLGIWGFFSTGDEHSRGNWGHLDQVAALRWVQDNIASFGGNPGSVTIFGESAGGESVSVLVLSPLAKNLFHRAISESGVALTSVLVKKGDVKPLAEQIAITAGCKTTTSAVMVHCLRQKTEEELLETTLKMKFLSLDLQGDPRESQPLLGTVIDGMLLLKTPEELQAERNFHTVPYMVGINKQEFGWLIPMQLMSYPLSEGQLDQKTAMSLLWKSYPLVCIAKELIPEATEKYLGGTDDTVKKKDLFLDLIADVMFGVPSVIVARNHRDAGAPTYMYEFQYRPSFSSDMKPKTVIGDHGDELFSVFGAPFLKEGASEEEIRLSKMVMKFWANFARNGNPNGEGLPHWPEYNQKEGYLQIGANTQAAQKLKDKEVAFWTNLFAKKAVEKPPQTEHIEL
# Excerpt: CES2 and CES1 enzyme assays were used for primary screening and IC50 determination of potential inhibitors. The assays are well established and widely used in compound discovery and lead optimization for CES inhibitors. See, e.g., Wadkins et al. 2004, Mol. Pharmacol. 65(6):1336 1343; Wadkins et al. 2005, J. Med. Chem. 48(8):2906 2915; Hicks et al. 2009, J. Med. Chem. 52(12):3742 3752; Hyatt et al. 2007, J. Med. Chem. 50(8):1876 1885; Hicks et al. 2007, Bioorg. Med. Chem. 15(11):3801 3817; Hyatt et al. 2007, J. Med. Chem., 50(23):5727 5734; Wadkins et al. 2007, Mol. Pharmacol. 71(3):713 723; and Young et al. 2010, J. Med. Chem., 53(24):8709 8715. CES converts esters into the corresponding alcohol and carboxylic acid. The esterase substrate, 4 nitrophenyl acetate (4 NPA), was used to detect enzyme activity. The recombinant purified intestinal CES2 and human liver CES1 enzymes and 4 NPA were purchased from Sigma Aldrich (product ID E0412, E0162, and N8130, respectively). […] The assays were conducted in a total volume of 300 μL in 96 well microtiter plates. Reaction mixtures consisted of the following: 100 μL 50 mM HEPES with 10 units of enzyme, 10 μL compound solution (various concentrations), 2 μL 300 mM 4 NPA and 188 μL 50 mM HEPES, pH 7.4. The test compound and 4 NPA solution were added to the wells first and then the reaction was initiated by the addition of enzyme solution. After incubation for 15 min. at 25° C., absorbance at 405 nm was measured using a microplate reader.
# [2] = molecular target: T2, recombinant purified intestinal CES2 (Homo sapiens, UniProt O00748); experiment: CES2 enzyme assay (4-nitrophenyl acetate hydrolysis); type: biochemical
# T2 construct: purchased Sigma Aldrich E0412
# T2 sequence (O00748 27-559): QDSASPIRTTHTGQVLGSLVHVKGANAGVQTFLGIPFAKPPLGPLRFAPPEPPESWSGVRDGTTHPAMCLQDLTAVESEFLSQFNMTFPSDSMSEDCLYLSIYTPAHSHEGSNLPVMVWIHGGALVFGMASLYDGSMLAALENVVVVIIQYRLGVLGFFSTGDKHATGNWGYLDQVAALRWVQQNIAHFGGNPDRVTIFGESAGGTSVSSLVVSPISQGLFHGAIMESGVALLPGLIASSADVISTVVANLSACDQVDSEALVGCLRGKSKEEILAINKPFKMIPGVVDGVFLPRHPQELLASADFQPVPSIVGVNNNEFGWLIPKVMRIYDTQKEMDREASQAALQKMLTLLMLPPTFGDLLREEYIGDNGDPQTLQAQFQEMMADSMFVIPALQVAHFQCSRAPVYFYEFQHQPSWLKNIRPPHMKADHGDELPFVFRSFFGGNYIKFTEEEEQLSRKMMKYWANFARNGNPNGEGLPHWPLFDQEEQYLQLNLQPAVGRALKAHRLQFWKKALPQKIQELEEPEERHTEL
# Experimental: CES2 and CES1 enzyme assays were used for primary screening and IC50 determination of potential inhibitors. […] The esterase substrate, 4 nitrophenyl acetate (4 NPA), was used to detect enzyme activity. The recombinant purified intestinal CES2 and human liver CES1 enzymes and 4 NPA were purchased from Sigma Aldrich (product ID E0412, E0162, and N8130, respectively). […] The assays were conducted in a total volume of 300 μL in 96 well microtiter plates. Reaction mixtures consisted of the following: 100 μL 50 mM HEPES with 10 units of enzyme, 10 μL compound solution (various concentrations), 2 μL 300 mM 4 NPA and 188 μL 50 mM HEPES, pH 7.4. The test compound and 4 NPA solution were added to the wells first and then the reaction was initiated by the addition of enzyme solution. After incubation for 15 min. at 25° C., absorbance at 405 nm was measured using a microplate reader.
# [3] = tested on: CT 26 tumor bearing Balb/cJ mice; experiment: In vivo efficacy of CPT-11 plus hesperetin at different doses (Example 4); conditions: for Percentage of mice having diarrhea: CPT-11 alone
# Excerpt: as §1
# [4] = 4 NPA substrate, 15 min at 25° C., pH 7.4, read-out: IC50 CES1 Assay
# [5] = both hesperetin doses (20 mg/kg and 100 mg/kg) with CPT-11
structure (smiles),measurement,setting,value
"O=C(/C=C/c1ccccc1)c1ccc(O)cc1O [2′,4′ dihydroxychalcone, 2′,4′-dihydroxychalcone]","anti-tumor efficacy, as evaluated by tumor growth, versus CPT-11 only group",[1],No significant changes
same,losses in body weight induced by CPT-11 treatment,[1],reversed
same,survival rates as compared to CPT-11 alone,[1],improved
same,day on which diarrhea occurred,[1],13 days
same,Percentage of mice having diarrhea,[1]; day 12 after treatment,no mice
same,IC50,human liver CES1; [4],> 300 µM
same,inhibition of CES1,human liver CES1,No significant inhibition
same,Selectivity (IC50 CES1)/(IC50 CES2),[2],>180
same,IC50,"[2]; 4 NPA substrate, 15 min at 25° C., pH 7.4",1.66 µM
"CCc1c2c(nc3ccc(OC(=O)N4CCC(N5CCCCC5)CC4)cc13)-c1cc3c(c(=O)n1C2)COC(=O)[C@]3(O)CC [CPT-11, irinotecan]",day on which diarrhea occurred,[1],9 days
same,Percentage of mice having diarrhea,[1]; day 9 after treatment,50%
same,Percentage of mice having diarrhea,[1]; day 10 after treatment,50%
same,Percentage of mice having diarrhea,[1]; day 11 after treatment,75%
same,Percentage of mice having diarrhea,[1]; day 12 after treatment,75%
same,Percentage of mice having diarrhea,[1]; day 13 after treatment,75%
same,Percentage of mice having diarrhea,[1]; day 14 after treatment,75%
same,Percentage of mice having diarrhea,[3]; day 8 after treatment,10%
same,Percentage of mice having diarrhea,[3]; day 9 after treatment,20%
same,Percentage of mice having diarrhea,[3]; day 10 after treatment,40%
same,Percentage of mice having diarrhea,[3]; day 11 after treatment,70%
same,Percentage of mice having diarrhea,[3]; day 12 after treatment,70%
COc1ccc([C@@H]2CC(=O)c3c(O)cc(O)cc3O2)cc1O [hesperetin],"anti-tumor efficacy, as evaluated by tumor growth, versus CPT-11 only group",[1],No significant changes
same,losses in body weight induced by CPT-11 treatment,[1],reversed
same,survival rates as compared to CPT-11 alone,[1],improved
same,day on which diarrhea occurred,[1],12 days
same,Percentage of mice having diarrhea,[1]; day 12 after treatment,25%
same,IC50,human liver CES1,> 300 µM
same,inhibition of CES1,human liver CES1,No significant inhibition
same,number of animals exhibiting diarrhea as compared to CPT-11 alone,[3]; [5],reduced
same,onset of diarrhea as compared to CPT-11 alone,[3]; [5],significantly delayed
same,survival of animals as compared to CPT-11 alone,"[3]; co-administering hesperetin and CPT-11, both hesperetin doses, FIG. 2C",improved
same,loss in body weight induced by CPT-11 administration,"[3]; co-administration of hesperetin at both doses tested, FIG. 2B",reduced
same,anti-tumor efficacy of CPT-11 on co-administration,[3]; either dose of hesperetin (20 mg/kg or 100 mg/kg),improved
same,day of onset of diarrhea,[3]; hesperetin 20 mg/kg with CPT-11,10 days
same,day of onset of diarrhea,[3]; hesperetin 100 mg/kg with CPT-11,12 days
O=C1C[C@@H](c2ccc(O)cc2)Oc2cc(O)cc(O)c21 [naringenin],"anti-tumor efficacy, as evaluated by tumor growth, versus CPT-11 only group",[1],No significant changes
same,IC50,human liver CES1; [4],159 µM
